{
  "source": "patent US20060093617A1",
  "about": "“Peptides for inducing a CTL and/or HTL response to hepatitis C virus” (Innogenetics, N.V., priority 2004, published 2006)",
  "note": "Where a SMILES comes first, the peptide text is derived from it.",
  "data": [
    {"molecular_target": "HLA-A02 (Homo sapiens, UniProt P04439, D140Y/D185E/D98H/E176V/E277Q/G131W/G231S/I119V/I121R/I166T/I218V/L300P/L318F/N151K/N90K/P208A/P217A/Q86G/Q94H/R138H/R169H/T345S)", "assay": "Competition binding assay using soluble HLA class I", "units": {"IC50": "nM", "Ki": "nM"}, "values": [
      {"smiles": "CC(C)C[C@H](NC(=O)[C@H](CS)NC(=O)[C@H](CO)NC(=O)[C@H](CC(C)C)NC(=O)[C@H](CC(C)C)NC(=O)[C@H](C)NC(=O)[C@H](CC(C)C)NC(=O)[C@H](CC(C)C)NC(=O)[C@@H](N)Cc1ccccc1)C(=O)O", "IC50": 136, "Ki": 136},
      {"smiles": "CC(C)C[C@H](NC(=O)[C@H](C)NC(=O)[C@H](CC(C)C)NC(=O)[C@H](CC(C)C)NC(=O)[C@@H](N)Cc1ccccc1)C(=O)N[C@@H](CC(C)C)C(=O)N[C@@H](CO)C(=O)N[C@@H](CS)C(=O)N[C@@H](CC(C)C)C(=O)N[C@H](C(=O)O)[C@@H](C)O", "IC50": 132, "Ki": 132},
      {"smiles": "CC(C)C[C@H](NC(=O)[C@H](CC(C)C)NC(=O)[C@H](Cc1c[nH]c2ccccc12)NC(=O)CNC(=O)[C@H](C)NC(=O)[C@H](Cc1c[nH]c2ccccc12)NC(=O)CNC(=O)[C@H](CC(C)C)NC(=O)CN)C(=O)O", "Ki": 27},
      {"smiles": "CC[C@H](C)[C@H](NC(=O)[C@H](CS)NC(=O)CNC(=O)[C@H](CC(C)C)NC(=O)[C@H](CC(C)C)NC(=O)CN)C(=O)N[C@H](C(=O)N[C@H](C(=O)N[C@@H](CO)C(=O)N[C@@H](CC(C)C)C(=O)O)[C@@H](C)O)[C@@H](C)CC", "IC50": 26, "Ki": 26},
      {"smiles": "CC[C@H](C)[C@H](N)C(=O)N[C@@H](CCSC)C(=O)N[C@@H](Cc1ccc(O)cc1)C(=O)N[C@@H](C)C(=O)N1CCC[C@H]1C(=O)N[C@H](C(=O)N[C@@H](CC(C)C)C(=O)N[C@@H](Cc1c[nH]c2ccccc12)C(=O)N[C@@H](C)C(=O)O)[C@@H](C)O", "IC50": 46, "Ki": 46},
      {"smiles": "CC[C@H](C)[C@H](NC(=O)[C@@H](NC(=O)[C@H](CC(C)C)NC(=O)[C@H](CS)NC(=O)[C@H](CO)NC(=O)[C@H](CC(C)C)NC(=O)[C@@H](N)CC(C)C)[C@@H](C)O)C(=O)N1CCC[C@H]1C(=O)N[C@@H](C)C(=O)O", "IC50": 12, "Ki": 12},
      {"smiles": "CC(C)C[C@H](NC(=O)[C@@H](NC(=O)[C@@H](N)CC(C)C)C(C)C)C(=O)N[C@@H](CC(N)=O)C(=O)N1CCC[C@H]1C(=O)N[C@@H](CO)C(=O)N[C@H](C(=O)N[C@@H](C)C(=O)N[C@@H](C)C(=O)O)C(C)C", "Ki": 1680},
      {"smiles": "CC[C@H](C)[C@H](NC(=O)[C@@H](NC(=O)[C@@H](N)CC(N)=O)[C@@H](C)CC)C(=O)N[C@@H](CCSC)C(=O)N[C@@H](Cc1ccc(O)cc1)C(=O)N[C@@H](C)C(=O)N1CCC[C@H]1C(=O)N[C@H](C(=O)N[C@@H](CC(C)C)C(=O)O)[C@@H](C)O", "IC50": 70, "Ki": 70},
      {"smiles": "CC[C@H](C)[C@H](NC(=O)[C@@H](N)CCC(N)=O)C(=O)N[C@H](C(=O)NCC(=O)NCC(=O)N[C@H](C(=O)N[C@@H](Cc1ccc(O)cc1)C(=O)N[C@@H](CC(C)C)C(=O)N[C@@H](CC(C)C)C(=O)O)C(C)C)C(C)C", "IC50": 228},
      {"smiles": "CC(C)C[C@H](NC(=O)[C@@H](NC(=O)[C@@H](NC(=O)[C@H](CC(C)C)NC(=O)[C@@H](N)CCCNC(=N)N)C(C)C)C(C)C)C(=O)N[C@@H](C)C(=O)N[C@H](C(=O)N[C@@H](C)C(=O)N[C@H](C(=O)O)[C@@H](C)O)[C@@H](C)O", "Ki": 16700},
      {"smiles": "CC[C@H](C)[C@H](NC(=O)[C@H](Cc1c[nH]cn1)NC(=O)[C@@H](NC(=O)[C@H](CC(C)C)NC(=O)CNC(=O)[C@@H](NC(=O)[C@H](Cc1ccccc1)NC(=O)[C@@H](NC(=O)[C@@H](N)CO)C(C)C)[C@@H](C)O)[C@@H](C)O)C(=O)O", "Ki": 84},
      {"smiles": "CC(C)C[C@H](NC(=O)[C@H](CC(C)C)NC(=O)[C@@H]1CCCN1C(=O)[C@@H](NC(=O)[C@@H]1CCCN1C(=O)CNC(=O)[C@H](Cc1c[nH]cn1)NC(=O)[C@H](CC(C)C)NC(=O)[C@@H](N)[C@@H](C)O)[C@@H](C)O)C(=O)O", "IC50": 68, "Ki": 68},
      {"smiles": "CC[C@H](C)[C@H](NC(=O)[C@H](CC(N)=O)NC(=O)CNC(=O)[C@H](CC(C)C)NC(=O)[C@@H](N)Cc1c[nH]c2ccccc12)C(=O)N[C@H](C(=O)N[C@@H](CCSC)C(=O)N[C@@H](Cc1ccc(O)cc1)C(=O)N[C@@H](C)C(=O)O)[C@@H](C)CC", "Ki": 14.5},
      {"smiles": "CC[C@H](C)[C@H](NC(=O)[C@@H](N)Cc1ccc(O)cc1)C(=O)N1CCC[C@H]1C(=O)N[C@@H](CC(C)C)C(=O)N[C@H](C(=O)NCC(=O)N[C@@H](C)C(=O)N1CCC[C@H]1C(=O)N[C@@H](CC(C)C)C(=O)O)C(C)C", "IC50": 337, "Ki": 77},
      {"smiles": "CC(C)C[C@H](NC(=O)[C@@H]1CCCN1C(=O)[C@H](Cc1c[nH]c2ccccc12)NC(=O)[C@@H]1CCCN1C(=O)[C@H](Cc1ccc(O)cc1)NC(=O)CNC(=O)[C@@H]1CCCN1C(=O)[C@H](CCC(N)=O)NC(=O)[C@H](C)N)C(=O)O", "note": "(H-AQPGYPWPL-OH; N-terminus and C-terminus assumed)", "Ki": 382},
      {"smiles": "CC(C)C[C@H](NC(=O)[C@H](CCCNC(=N)N)NC(=O)[C@H](Cc1ccc(O)cc1)NC(=O)[C@@H]1CCCN1C(=O)[C@H](Cc1ccc(O)cc1)NC(=O)[C@H](CC(=O)O)NC(=O)[C@@H](NC(=O)[C@H](CC(C)C)NC(=O)[C@@H](N)CS)C(C)C)C(=O)O", "note": "(H-CLVDYPYRL-OH; N-terminus and C-terminus assumed)", "IC50": 437, "Ki": 437},
      {"smiles": "CC(C)C[C@H](NC(=O)[C@H](Cc1ccccc1)NC(=O)[C@@H](NC(=O)[C@H](CO)NC(=O)CNC(=O)[C@H](CS)NC(=O)[C@H](CC(C)C)NC(=O)[C@@H](N)CC(=O)O)C(C)C)C(=O)N[C@H](C(=O)O)C(C)C", "note": "(H-DLCGSVFLV-OH; N-terminus and C-terminus assumed)", "Ki": 789},
      {"smiles": "CC[C@H](C)[C@H](NC(=O)[C@@H](N)Cc1ccccc1)C(=O)N1CCC[C@H]1C(=O)N[C@H](C(=O)N[C@@H](CCC(=O)O)C(=O)N[C@@H](CO)C(=O)N[C@@H](CCSC)C(=O)N[C@@H](CCC(=O)O)C(=O)N[C@H](C(=O)O)[C@@H](C)O)C(C)C", "note": "(H-FIPVESMET-OH)", "Ki": 934},
      {"smiles": "CSCC[C@H](NC(=O)CN)C(=O)N[C@@H](Cc1ccccc1)C(=O)N[C@@H](CC(=O)O)C(=O)N[C@@H](CO)C(=O)N[C@@H](CO)C(=O)N[C@H](C(=O)N[C@@H](CC(C)C)C(=O)N[C@@H](CS)C(=O)O)C(C)C", "note": "(H-GMFDSSVLC-OH)", "IC50": 114, "Ki": 71},
      {"smiles": "CC[C@H](C)[C@H](N)C(=O)N[C@@H](CCSC)C(=O)N[C@@H](C)C(=O)N[C@@H](CS)C(=O)N[C@@H](CCSC)C(=O)N[C@@H](CO)C(=O)N[C@@H](C)C(=O)N[C@@H](CC(=O)O)C(=O)N[C@@H](CC(C)C)C(=O)O", "note": "(H-IMACMSADL-OH; N-terminus and C-terminus assumed)", "IC50": 66, "Ki": 66},
      {"smiles": "CC[C@H](C)[C@H](N)C(=O)N[C@@H](CCSC)C(=O)N[C@@H](C)C(=O)N[C@@H](CCCCN)C(=O)N[C@@H](CC(N)=O)C(=O)N[C@@H](CCC(=O)O)C(=O)N[C@H](C(=O)N[C@@H](Cc1ccccc1)C(=O)N[C@@H](CS)C(=O)N[C@H](C(=O)O)C(C)C)C(C)C", "note": "(H-IMAKNEVFCV-OH; N-terminus and C-terminus assumed)", "IC50": 199, "Ki": 199},
      {"smiles": "CC(C)C[C@H](NC(=O)[C@@H](NC(=O)[C@H](CC(C)C)NC(=O)[C@@H](NC(=O)[C@@H](N)CCCCN)C(C)C)C(C)C)C(=O)N[C@@H](CC(N)=O)C(=O)N1CCC[C@H]1C(=O)N[C@@H](CO)C(=O)N[C@H](C(=O)O)C(C)C", "note": "(H-KVLVLNPSV-OH)", "IC50": 50, "Ki": 50},
      {"smiles": "CSCC[C@H](N)C(=O)N[C@@H](C)C(=O)N[C@@H](CC(C)C)C(=O)N[C@@H](Cc1ccc(O)cc1)C(=O)N[C@@H](CC(=O)O)C(=O)N[C@H](C(=O)N[C@H](C(=O)N[C@@H](CO)C(=O)N[C@H](C(=O)O)[C@@H](C)O)C(C)C)C(C)C", "note": "(H-MALYDVVST-OH; N-terminus and C-terminus assumed)", "Ki": 1140},
      {"smiles": "CC[C@H](C)[C@H](NC(=O)[C@H](CO)NC(=O)[C@H](Cc1ccccc1)NC(=O)[C@H](CO)NC(=O)[C@H](CS)NC(=O)CNC(=O)[C@@H]1CCCN1C(=O)[C@H](CC(C)C)NC(=O)[C@@H](N)CC(N)=O)C(=O)O", "note": "(H-NLPGCSFSI-OH)", "IC50": 83, "Ki": 70},
      {"smiles": "CC[C@H](C)[C@H](NC(=O)[C@H](Cc1ccc(O)cc1)NC(=O)[C@H](CC(C)C)NC(=O)[C@@H](N)CCCNC(=N)N)C(=O)NCC(=O)NCC(=O)N1CCC[C@H]1C(=O)N[C@@H](CC(C)C)C(=O)N[C@H](C(=O)O)[C@@H](C)O", "note": "(H-RLYIGGPLT-OH)", "Ki": 536},
      {"smiles": "CSCC[C@H](NC(=O)[C@@H](N)CO)C(=O)N[C@H](C(=O)NCC(=O)N[C@@H](CC(N)=O)C(=O)N[C@@H](Cc1c[nH]c2ccccc12)C(=O)N[C@@H](C)C(=O)N[C@@H](CCCCN)C(=O)N[C@H](C(=O)O)C(C)C)C(C)C", "note": "(H-SMVGNWAKV-OH; N-terminus and C-terminus assumed)", "IC50": 158, "Ki": 158},
      {"smiles": "CC[C@H](C)[C@H](NC(=O)[C@H](Cc1c[nH]cn1)NC(=O)[C@@H](NC(=O)[C@H](CC(C)C)NC(=O)CNC(=O)[C@@H](NC(=O)[C@H](Cc1ccccc1)NC(=O)[C@@H](NC(=O)[C@@H](N)CO)C(C)C)[C@@H](C)O)[C@@H](C)CC)C(=O)O", "note": "(H-SVFTGLIHI-OH)", "IC50": 101},
      {"smiles": "CC(C)C[C@H](NC(=O)[C@@H](NC(=O)[C@H](CO)NC(=O)[C@@H](NC(=O)[C@@H](N)C(C)C)C(C)C)[C@@H](C)O)C(=O)N1CCC[C@H]1C(=O)N[C@@H](CCC(N)=O)C(=O)N[C@@H](C)C(=O)N[C@H](C(=O)O)C(C)C", "note": "(H-VVSTLPQAV-OH; N-terminus and C-terminus assumed)", "Ki": 884},
      {"smiles": "CC(C)C[C@H](NC(=O)[C@@H](N)Cc1ccc(O)cc1)C(=O)N[C@@H](Cc1ccccc1)C(=O)N[C@@H](CC(N)=O)C(=O)N[C@@H](Cc1c[nH]c2ccccc12)C(=O)N[C@@H](C)C(=O)N[C@H](C(=O)N[C@@H](CCCNC(=N)N)C(=O)N[C@H](C(=O)O)[C@@H](C)O)C(C)C", "note": "(H-YLFNWAVRT-OH; N-terminus and C-terminus assumed)", "IC50": 29, "Ki": 29},
      {"smiles": "CC(C)[C@H](NC(=O)[C@@H](NC(=O)[C@H](C)NC(=O)[C@H](CCC(N)=O)NC(=O)[C@@H](N)Cc1ccc(O)cc1)[C@@H](C)O)C(=O)N[C@@H](CS)C(=O)N[C@@H](C)C(=O)N[C@@H](CCCNC(=N)N)C(=O)N[C@@H](C)C(=O)O", "note": "(H-YQATVCARA-OH)", "IC50": 20, "Ki": 20},
      {"smiles": "CC(C)C[C@H](NC(=O)[C@H](C)NC(=O)[C@H](CC(C)C)NC(=O)[C@H](CC(C)C)NC(=O)[C@H](CC(C)C)NC(=O)[C@H](CC(C)C)NC(=O)[C@H](CC(C)C)NC(=O)[C@H](CC(C)C)NC(=O)[C@@H]1CCCN1)C(=O)O", "note": "[PLLLLLLAL] (H-PLLLLLLAL-OH)", "Ki": 6550}
    ]}
  ]
}
